According to US8431597B2, “Benzimidazole derivatives” (Pfizer Inc., priority 2007, dated 2013):
Structures can show the parent of a compound that is named as a salt.

Target: T1, Smoothened (SMO) (Mus musculus, UniProt P56726)
T1 construct: C3H10T1/2 cells (ATCC #CCL-226) were split and seeded; endogenous in cells; host or cells: C3H10T1/2 (ATCC #CCL-226)
Assay: Smoothened (SMO)/Sonic Hedgehog (SHh) Transient Transcriptional Activation Assay (Gli-luciferase reporter in C3H10T1/2 cells)
Assay type: cell-based, murine
Details: C3H 10T1/2, 2 μM compound; transfected C3H10T1/2 cells, recombinant human SHh 250 ng/mL, 20 hours, luciferase readout; read-out: SMO CELL % INHIBITION @ 2 μM
Procedure, shortened: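 C3H10T1/2 cells transiently transfected with a murine Gli-responsive firefly luciferase reporter plus pEGFP were serum-starved 20 h in 0.5% calf serum. Compound (2 μM to 2 nM final) was added with recombinant human SHh at 250 ng/mL final for 20 h at 37 °C. Read-out was Dual-Glo luminescence.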

T1 sequence (P56726 33-793): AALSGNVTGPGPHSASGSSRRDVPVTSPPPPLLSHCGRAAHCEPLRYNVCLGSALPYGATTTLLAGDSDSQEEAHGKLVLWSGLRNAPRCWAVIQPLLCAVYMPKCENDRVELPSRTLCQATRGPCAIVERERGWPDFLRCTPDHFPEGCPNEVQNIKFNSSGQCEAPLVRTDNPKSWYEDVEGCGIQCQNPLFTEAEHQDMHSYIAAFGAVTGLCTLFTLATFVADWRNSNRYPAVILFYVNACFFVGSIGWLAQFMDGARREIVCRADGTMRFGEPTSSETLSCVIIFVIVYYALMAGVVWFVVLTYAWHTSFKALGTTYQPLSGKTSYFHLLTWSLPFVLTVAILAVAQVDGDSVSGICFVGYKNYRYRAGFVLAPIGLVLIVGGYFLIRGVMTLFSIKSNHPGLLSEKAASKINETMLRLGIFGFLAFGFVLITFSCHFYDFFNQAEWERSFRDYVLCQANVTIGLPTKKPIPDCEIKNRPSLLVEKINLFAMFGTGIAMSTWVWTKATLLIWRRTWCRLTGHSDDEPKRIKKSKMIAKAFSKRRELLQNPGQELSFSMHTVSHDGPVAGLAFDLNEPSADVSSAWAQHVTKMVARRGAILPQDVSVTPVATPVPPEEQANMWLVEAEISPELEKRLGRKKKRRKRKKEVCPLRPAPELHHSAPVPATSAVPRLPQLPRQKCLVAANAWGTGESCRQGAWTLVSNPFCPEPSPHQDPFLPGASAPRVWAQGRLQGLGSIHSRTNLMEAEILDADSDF

inhibition at 2 µM [%]	SMILES
107	COc1ccc2[nH]c([C@H]3C[C@H](NC(=O)Nc4ccc(C)nc4)CCN3C3CCC3)nc2c1 [Example 153, 1-[(2R,4R)-1-cyclobutyl-2-(5-methoxy-1H-benzimidazol-2-y1)piperidin-4-yl]-3-(6-methylpyridin-3-yl)urea triflouroacetate]
103	Cc1ccc(NC(=O)N[C@@H]2CCN(C)[C@@H](c3nc4cc(C#N)ccc4[nH]3)C2)cn1 [Example 127, 1-[(2R,4R)-2-(5-cyano-1H-benzimidazol-2-yl)-1-methylpiperidin-4-yl]-3-(6-methylpyridin-3-yl)urea hydrochloride]
75.5	CN1CC[C@@H](NC(=O)Cc2nc3ccccc3o2)C[C@@H]1c1nc2ccccc2[nH]1 [Example 114, N-[(2R,4R)-2-(1H-benzimidazol-2-yl)-1-methylpiperidin-4-yl]-2-(1,3-benzoxazol-2-yl)acetamide trifluoroacetate]
108	CN1CC[C@@H](NC(=O)c2ccc3c(c2Cl)OCCO3)C[C@@H]1c1nc2ccccc2[nH]1 [Example 144, N-[(2R,4R)-2-(1H-benzimidazol-2-yl)-1-methylpiperidin-4-yl]-5-chloro-2,3-dihydro-1,4-benzodioxine-6-carboxamide triflouroacetate]
63.7	CN1CC[C@@H](NC(=O)Cc2ccccc2F)C[C@@H]1c1nc2ccccc2[nH]1 [Example 120, N-[(2R,4R)-2-(1H-benzimidazol-2-yl)-1-methylpiperidin-4-yl]-2-(2-fluorophenyl)acetamide trifluoroacetate]
101	CN1CC[C@@H](NC(=O)c2ccc3c(c2F)OCCO3)C[C@@H]1c1nc2cc(Cl)ccc2[nH]1 [Example 142, N-[(2R,4R)-2-(5-chloro-1H-benzimidazol-2-yl)-1-methylpiperidin-4-yl]-5-fluoro-2,3-dihydro-1,4-benzodioxine-6-carboxamide triflouroacetate]
108	COc1ccc(NC(=O)N[C@@H]2CCN(C)[C@@H](c3nc4ccc(Cl)cc4[nH]3)C2)cn1 [Example 133, 1-[(2R,4R)-2-(6-chloro-1H-benzimidazol-2-yl)-1-methylpiperidin-4-yl]-3-(6-methoxypyridin-3-yl)urea hydrochloride]
35.3	COc1ccc2[nH]c([C@H]3C[C@H](NC(=O)c4cc5c(cc4Cl)OCCO5)CCN3C)nc2c1 [Example 149, 7-chloro-N-[(2R,4R)-2-(5-methoxy-1H-benzimidazol-2-yl)-1-methylpiperidin-4-yl]-2,3-dihydro-1,4-benzodioxine-6-carboxamide triflouroacetate]
102	Cc1ccc(NC(=O)N[C@@H]2CCN(C)[C@@H](c3nc4cc(C(F)(F)F)ccc4[nH]3)C2)cn1 [Example 128, 1-(6-methylpyridin-3-yl)-3-{(2R,4R)-1-methyl-2-[5-(trifluoromethyl)-1H-benzimidazol-2-yl]piperidin-4-yl}urea hydrochloride]
69.5	CN1CC[C@@H](NC(=O)c2cc3c(cc2Cl)OCCO3)C[C@@H]1c1nc2ccccc2[nH]1 [Example 147, N-[(2R,4R)-2-(1H-benzimidazol-2-yl)-1-methylpiperidin-4-yl]-7-chloro-2,3-dihydro-1,4-benzodioxine-6-carboxamide triflouroacetate]

More lines, now with the values behind:

SMILES	inhibition at 2 µM [%]
CN1CC[C@@H](NC(=O)Nc2ccc(C(F)(F)F)nc2)C[C@@H]1c1nc2cc(C(F)(F)F)ccc2[nH]1 [Example 35, 1-{(2R,4R)-1-methyl-2-[5-(trifluoromethyl)-1H-benzimidazol-2-yl]piperidin-4-yl}-3-[6-(trifluoromethyl)pyridin-3-yl]urea hydrochloride]	107
CC(C)CN1CC[C@@H](NC(=O)Nc2ccc(C#N)cc2)C[C@@H]1c1nc2ccccc2[nH]1 [Example 39, 1-[(2R,4R)-2-(1H-benzimidazol-2-yl)-1-isobutylpiperidin-4-yl]-3-(4-cyanophenyl)urea]	106
CN1CC[C@@H](NC(=O)Nc2ccc(C(F)(F)F)cn2)C[C@@H]1c1nc2ccccc2[nH]1 [Example 101, 1-[(2R,4R)-2-(1H-benzimidazol-2-yl)-1-methylpiperidin-4-yl]-3-[5-(trifluoromethyl)pyridin-2-yl]urea hydrochloride]	62.5
CN(C)c1ccc2[nH]c([C@H]3C[C@H](NC(=O)c4ccc5c(c4)OCCO5)CCN3C)nc2c1 [Example 27, N-{(2R,4R)-2-[5-(dimethylamino)-1H-benzimidazol-2-yl]-1-methylpiperidin-4-yl}-2,3-dihydro-1,4-benzodioxine-6-carboxamide hydrochloride]	108
Cc1ccc2[nH]c([C@H]3C[C@H](NC(=O)Nc4ccc(C#N)cc4)CCN3C)nc2c1 [Example 36, 1-(4-cyanophenyl)-3-[(2R,4R)-1-methyl-2-(5-methyl-1H-benzimidazol-2-yl)piperidin-4-yl]urea hydrochloride]	107
CN1CC[C@@H](NC(=O)c2ccc3c(c2)OCCO3)C[C@@H]1c1nc2ccc(Cl)cc2[nH]1 [Example 34, N-[(2R,4R)-2-(6-chloro-1H-benzimidazol-2-yl)-1-methylpiperidin-4-yl]-2,3-dihydro-1,4-benzodioxine-6-carboxamide hydrochloride]	107
CN1CC[C@@H](NC(=O)c2ccc3c(c2)CCO3)C[C@@H]1c1nc2ccccc2[nH]1 [Example 47, N-[(2R,4R)-2-(1H-benzimidazol-2-yl)-1-methylpiperidin-4-yl]-2,3-dihydro-1-benzofuran-5-carboxamide hydrochloride]	105
CN1CC[C@@H](NC(=O)c2ccc3c(c2)CCCO3)C[C@@H]1c1nc2ccccc2[nH]1 [Example 33, N-[(2R,4R)-2-(1H-benzimidazol-2-yl)-1-methylpiperidin-4-yl]chromane-6-carboxamide hydrochloride]	114
CN1CC[C@@H](NC(=O)Cc2cc3ccccc3o2)C[C@@H]1c1nc2ccccc2[nH]1 [Example 104, N-[(2R,4R)-2-(1H-benzimidazol-2-yl)-1-methylpiperidin-4-yl]-2-(1-benzofuran-2-yl)acetamide trifluoroacetate]	99.5
CN1CC[C@@H](NC(=O)Nc2ccc(C#N)cc2)C[C@@H]1c1nc2cc(C(F)(F)F)ccc2[nH]1 [Example 7, 1-(4-cyanophenyl)-3-{(2R,4R)-1-methyl-2-[5-(trifluoromethyl)-1H-benzimidazol-2-yl]piperidin-4-yl}urea hydrochloride]	109
CC(C)(C)OC(=O)N1C[C@@H](NC(=O)Nc2ccc(Cl)c(C(F)(F)F)c2)C[C@H]1c1nc2ccccc2[nH]1 [Example 8, tert-butyl (2S,4S)-2-(1H-benzimidazol-2-yl)-4-[({[4-chloro-3-(trifluoromethyl)phenyl]amino}carbonyl)amino]pyrrolidine-1-carboxylate]	57.1
Cc1cc(NC(=O)N[C@@H]2CCN(C)[C@@H](c3nc4ccccc4[nH]3)C2)cnc1F [Example 40, 1-[(2R,4R)-2-(1H-benzimidazol-2-yl)-1-methylpiperidin-4-yl]-3-(6-fluoro-5-methylpyridin-3-yl)urea hydrochloride]	106
COc1ccc2nc([C@H]3C[C@H](NC(=O)c4ccc5c(c4)OCCO5)CCN3C)[nH]c2c1 [Example 38, N-[(2R,4R)-2-(6-methoxy-1H-benzimidazol-2-yl)-1-methylpiperidin-4-yl]-2,3-dihydro-1,4-benzodioxine-6-carboxamide hydrochloride]	106
CN1CC[C@@H](NC(=O)Nc2cc(F)cc3c2OCOC3)C[C@@H]1c1nc2ccccc2[nH]1 [Example 41, 1-[(2R,4R)-2-(1H-benzimidazol-2-yl)-1-methylpiperidin-4-yl]-3-(6-fluoro-4H-1,3-benzodioxin-8-yl)urea hydrochloride]	106
CN1CC[C@@H](NC(=O)Nc2cccc(C#N)c2)C[C@@H]1c1nc2ccccc2[nH]1 [Example 88, 1-[(2R,4R)-2-(1H-benzimidazol-2-yl)-1-methylpiperidin-4-yl]-3-(3-cyanophenyl)urea hydrochloride]	92.1
CN1CC[C@@H](NC(=O)Nc2ccc(Cl)c(C(F)(F)F)c2)C[C@@H]1c1nc2ccccc2[nH]1 [Example 26, 1-[(2R,4R)-2-(1H-benzimidazol-2-yl)-1-methylpiperidin-4-yl]-3-[4-chloro-3-(trifluoromethyl)phenyl]urea hydrochloride]	109
CN1CC[C@@H](NC(=O)Nc2ccc(F)nc2)C[C@@H]1c1nc2ccccc2[nH]1 [Example 32, 1-[(2R,4R)-2-(1H-benzimidazol-2-yl)-1-methylpiperidin-4-yl]-3-(6-fluoropyridin-3-yl)urea hydrochloride]	107
N#Cc1ccc(NC(=O)N[C@@H]2CCN(CCc3ccccc3)[C@@H](c3nc4ccccc4[nH]3)C2)cc1 [Example 98, 1-[(2R,4R)-2-(1H-benzimidazol-2-yl)-1-(2-phenyl-ethyl)piperidin-4-yl)-3-(4-cyanophenyl)urea]	74.5
CN1CC[C@@H](NC(=O)c2ccc3c(c2)OCCO3)C[C@H]1c1nc2ccccc2[nH]1 [Example 42, N-[(2S,4R)-2-(1H-benzimidazol-2-yl)-1-methylpiperidin-4-yl]-2,3-dihydro-1,4-benzodioxine-6-carboxamide hydrochloride]	106
CN1CC[C@@H](NC(=O)Cn2cc3ccccc3n2)C[C@@H]1c1nc2ccccc2[nH]1 [Example 108, N-[(2R,4R)-2-(1H-benzimidazol-2-yl)-1-methylpiperidin-4-yl]-2-(2H-indazol-2-yl)acetamide trifluoroacetate]	86.4
